Assay results reported in PMC11967820, “Deep Learning Combined with Quantitative Structure‒Activity Relationship Accelerates De Novo Design of Antifungal Peptides” (Advanced Science, 2025).
Like-named read-outs stand apart in the source and are kept apart here. No end group written: not given here.

How the values were obtained:
[1] = test system: human red blood cells (HRBCs); settings: for MHC5, minimal hemolytic concentration that results in 5% human erythrocyte hemolysis: 2% fresh human red blood cells in saline, 37 °C, 30 min, absorbance 540 nm, mean ± SD, n = 3; for TI, therapeutic index against C. albicans: TI = MHC5/MIC100 (C. albicans)
Method: A 2% fresh human red blood cells (HRBCs) suspension was used in the hemolysis assay of c_AFPs.^[ [48], [50] ^] The c_AFPs solution was prepared in saline with a concentration range of 0–0.5 mg mL^−1. Then, 2% HRBCs suspension was incubated with different concentrations of c_AFPs in a 96‐well plate (37 °C, 30 min). […] Saline was used as a negative control, and Triton X‐100 (1%) was used as a positive control. Each experiment was replicated three times.

[2] = test system: fluconazole‐resistant C. albicans; settings: 1 × 10^6 CFU mL^−1, 28 °C, 12 h, then plated on SD agar 37 °C, 16 h
Method: Fluconazole‐resistant C. albicans was prepared following the established methods.^[ [23], [51], [52] ^]

C. albicans [3] = assay: Resistance induction by continuous passaging culture; type: cell-based, Candida albicans; settings: for change of MIC on continuous passaging: SD broth, 24 h per generation, 28 °C
Method: The resistance tendency of c_AFPs developed in C. albicans was assessed utilizing a continuous passaging culture.^[ [23], [51] ^] […] Subsequently, 20 µL of culture was transferred to a fresh SD broth with the same concentration of c_AFPs/antibiotic. The concentrations of c_AFPs/antibiotic in the SD broth were doubled every 10 generations, and the MICs of the c_AFPs/antibiotic were detected every 5 generations. Each 24‐hour incubation was considered one generation. PBS (pH 6.0) was used as a blank control, and fluconazole was used as an antibiotic control. Each experiment was performed three times.

C. albicans [4] = settings: 0.12 mg kg^−1 intraperitoneally
Method: The systemic C. albicans infection mouse model was established following the reported reference.^[ [22] ^] Cyclophosphamide (150 mg kg^−1 d^−1) was first injected intraperitoneally for 3 days to disrupt the immunity of female Kunming mice (Experimental Animal Center of Zhengzhou University, SCXK Yu 2021–0009). […] The injections were given once every 24 h during the first week and once every 48 h during the second week. Survival rates and body weights of the mice in each group were recorded during treatment. At 0, 7, and 14 d of treatment, duplicate samples (n = 3) of the spleen and thymus were collected from each group to determine the immune organ index.^[ [54] ^] The ratio of organ weight to body weight was adopted to describe the immune organ index. At 14 d of treatment, liver, lung, kidney, and spleen tissues were collected from each group of mice and immersed in 4% paraformaldehyde fixative. Subsequently, the tissue samples were embedded in paraffin, followed by sectioned and stained with hematoxylin‐eosin (H&E). Finally, optical microscopy was used to observe the pathological changes in the organ tissues of the mice.

[5] = Day 7, fluconazole group, n = 3

| Compound | MHC5, minimal hemolytic concentration that results in 5% human erythrocyte hemolysis [1] | TI, therapeutic index against C. albicans [1] | minimum fungicidal concentration (MFC) against fluconazole‐resistant C. albicans [2] | change of MIC on continuous passaging (C. albicans [3]; 25th generation) | change of MIC on continuous passaging (C. albicans [3]; 40th generation) | MIC (C. albicans [3]; Candida albicans, read-out: MIC of fluconazole against C. albicans) | change of MIC on continuous passaging (C. albicans [3]; first 20 generations, 0.5 × MIC doubled every 10 generations) | splenic index (C. albicans [4]; [5]) | thymic index (C. albicans [4]; [5]) | thymic index (C. albicans [4]; Day 14, fluconazole group, n = 3) | average increased weight after 14 days of treatment (C. albicans [4]; fluconazole group, n = 10) |
| --- | --- | --- | --- | --- | --- | --- | --- | --- | --- | --- | --- |
| VRWRIRLIRKLA-NH2 [AFP‐13] | 99.50 ± 3.28 µg/mL | 15.89 | 2 × MIC | – | – | – | – | – | – | – | – |
| RLWRIVLIRRAK-NH2 [AFP‐10] | 48.11 ± 1.54 µg/mL | 13.71 | 2 × MIC | – | – | – | – | – | – | – | – |
| RLWRIVVIRRAR-NH2 [AFP‐8] | 41.81 ± 1.88 µg/mL | 5.45 | 4 × MIC | – | – | – | – | – | – | – | – |
| RLWRIVLIRKAR-NH2 [AFP‐11] | 46.51 ± 2.24 µg/mL | 6.22 | 8 × MIC | – | – | – | – | – | – | – | – |
| OC(Cn1cncn1)(Cn1cncn1)c1ccc(F)cc1F [fluconazole] | – | – | > 50 × MIC | increased twofold | eightfold | 1.9 mg/L | remained unchanged | 9.89 mg/g | 2.45 mg/g | 5.16 mg/g | 8.16 g |
